Measurements reported in patent US12215354B2, “Differentiation of human embryonic stem cells into single hormonal insulin positive cells” (Janssen Biotech, Inc., priority 2011, dated 2025).

System: human embryonic stem cell line H1
Assay: Immune staining for insulin, glucagon and somatostatin hormones at end of stage 5 (Example 11)
Type: cell-based
Settings: percentage of the entire hormone count, 0.25 mM ascorbic acid
Experimental: Cells of the human embryonic stem cell line H1 at various passages (passage 40 to passage 52) were seeded as single cells at a density of 100,000 cells/cm^2 on MATRIGEL™ (1:30 dilution) coated dishes in mTesr™1 media and 10 μM of Y27632. Forty eight hours post seeding, cultures were differentiated into pancreatic endocrine lineage as follows: • a. Stage 1 (Definitive Endoderm (DE)−3 days): Prior to start of DE, the cultures were washed and incubated with incomplete PBS (no Mg or Ca) for 30 seconds followed by addition of the stage 1 media. Human embryonic stem cells cultured as single cells on MATRIGEL™-coated dishes were treated with MCDB-131 medium supplemented with 0.1% fatty acid-free BSA, 0.0012 g/ml sodium bicarbonate, 1× GLUTAMAX™, 5 mM D-Glucose, 100 ng/ml GDF8, and 1 μM MCX compound (GSK3B inhibitor) for one day. Cells were then treated with MCDB-131 medium supplemented with 0.1% fatty acid-free BSA, 0.0012 g/ml sodium bicarbonate, 1× GLUTAMAX™, 5 mM glucose, 100 ng/ml GDF8, and 100 nM MCX compound for day two, followed by an additional day in MCDB-131 medium supplemented with 0.1% fatty acid-free BSA, 0.0012 g/ml sodium bicarbonate, 1× GLUTAMAX™, 5 mM Glucose, and 100 ng/ml GDF8. • b. Stage 2 (Primitive gut tube−2 days): Stage 1 cells were treated with MCDB-131 medium supplemented with 0.1% fatty acid-free BSA, 0.0012 g/ml sodium bicarbonate, 1× GLUTAMAX™, 5 mM D-Glucose, and 25 ng/ml FGF7 for two days. • c. Stage 3 (Foregut−2 days): Stage 2 cells were treated with MCDB-131 medium supplemented with 1:200 dilution of ITS-X, 2.5 mM Glucose, 1× GLUTAMAX™, 0.0015 g/ml sodium bicarbonate, 2% fatty acid-free BSA, 10 ng/ml Activin A, 25 ng/ml FGF7, 0.25 μM SANT-1, 1 μM RA, 200 nM TPB (PKC activator), 100 nM LDN-193189 (BMP receptor inhibitor) for one day. Cells were then treated with MCDB-131 medium supplemented with 1:200 dilution of ITS-X, 2.5 mM Glucose, 1× GLUTAMAX™, 0.0015 g/ml sodium bicarbonate, 2% fatty acid-free BSA, 10 ng/ml Activin A, 25 ng/ml FGF7, 0.25 μM SANT-1, 1 μM RA, 200 nM TPB (PKC activator), 10 nM LDN-193189 for an additional day. […]

## O=C1O[C@H]([C@@H](O)CO)C(O)=C1O [ascorbic acid]
  % Polyhormonal: 36%
  % glucagon + plus % somatostatin+: 44%
  % single hormonal Insulin+: 55%
